Source: ChEMBL document CHEMBL4342474, “Scaffold and Parasite Hopping: Discovery of New Protozoal Proliferation Inhibitors” (ACS Med Chem Lett, 2020)
pEC50: −log10 of the molar value. In brackets after ≈: the same amount, converted by molar mass.

Assays:
Plasmodium falciparum [1] = test: Antiplasmodial activity against Plasmodium falciparum W2 after 72 hrs by SYBR Green fluorescence assay; assay type: functional, organism-based; settings: W2, 72 h
Leishmania major [2] = test: Antileishmanial activity against Leishmania major amastigotes infected in mouse RAW 264.7 cells by luciferase reporter gene assay; assay type: functional, organism-based; settings: RAW264.7
Trypanosoma cruzi [3] = test: Antitrypanosomal activity against Trypanosoma cruzi Tulahuen trypomastigotes infected in mouse NIH/3T3 cells measured after 96 hrs by beta-galactosidase reporter gene assay; assay type: functional, organism-based; settings: NIH3T3, 96 h
Plasmodium falciparum [4] = test: Antiplasmodial activity against Plasmodium falciparum D6 measured after 72 hrs by SYBR green fluorescence dye based microplate reader analysis; assay type: functional, organism-based; settings: D6, 72 h
Leishmania major [5] = test: Antileishmanial activity against Leishmania major; assay type: functional, organism-based
Plasmodium falciparum [6] = test: Antiplasmodial activity against Plasmodium falciparum TM91C235 after 72 hrs by SYBR Green fluorescence assay; assay type: functional, organism-based; settings: TM91C235, 72 h
[7] = Aqueous solubility of compound at pH 7.4; assay type: physicochemical
Trypanosoma cruzi [8] = test: Antitrypanosomal activity against Trypanosoma cruzi Tulahuen amastigotes measured after 96 hrs by beta-galactosidase reporter gene assay; assay type: functional, organism-based
[9] = Intrinsic clearance in rat hepatocytes assessed as per million cells; assay type: ADME, cell-based, Hepatocyte; settings: read-out: CLH
[10] = Protein binding in human plasma; assay type: ADME, cell-free; settings: read-out: PPB (converted)
[11] = Selectivity index, ratio of TC50 for mouse C2C12 cells to EC50 for antitrypanosomal activity against Trypanosoma cruzi CaI-72 trypomastigotes infected in mouse C2C12 cells; assay type: toxicity, cell-based
[12] = Cytotoxicity against mouse C2C12 cells assessed as reduction in cell viability; assay type: cell-based; settings: read-out: TC50 (the source's name)
[13] = Selectivity index, ratio of TC50 for human HepG2 cells to EC50 for antiplasmodial activity against Plasmodium falciparum D6; assay type: toxicity
Trypanosoma cruzi [14] = test: Antitrypanosomal activity against Trypanosoma cruzi CaI-72 trypomastigotes infected in mouse C2C12 cells measured after 72 hrs by DAPI staining based assay; assay type: functional, organism-based; settings: CaI-72, C2C12, 72 h
[15] = Intrinsic clearance in human liver microsomes assessed as per mg protein; assay type: ADME, Microsome; settings: liver microsomes, read-out: CLH
Plasmodium falciparum [16] = test: Antiplasmodial activity against chloroquine-sensitive mefloquine resistant Plasmodium falciparum D6; assay type: functional, organism-based

| fraction unbound [10] | solubility ([7]; aqueous solution, read-out: solubility) [µM] | pEC50 (Trypanosoma cruzi [14]) | microsomal CLint [15] [µL/min/mg] | Structure (SMILES) | pEC50 (Plasmodium falciparum [1]) | pEC50 (Leishmania major [2]) | pEC50 (Trypanosoma cruzi [3]) | pEC50 (Plasmodium falciparum [4]) | pEC50 (Leishmania major [5]) | pEC50 (Plasmodium falciparum [6]) | solubility ([7]; buffer) [µM] | pEC50 (Trypanosoma cruzi [8]) | hepatocyte CLint [9] [µL/min/1e6 cells] | selectivity ratio [11] | CC50 [12] [nM] | selectivity ratio [13] | pEC50 (Plasmodium falciparum [16]) |
| --- | --- | --- | --- | --- | --- | --- | --- | --- | --- | --- | --- | --- | --- | --- | --- | --- | --- |
| – | – | – | – | CN1CCN(c2ncc(-c3ccc4c(Nc5cnccn5)ccnc4c3)cn2)CC1 | 7.21 | < 4.82 | 5.22 | 7.59 | < 4.82 | 7.43 | […] | 5.22 | 127 | – | – | – | – |
| 0.28 | 137 (≈ 64.1 µg/mL) | 6.48 | 43 | O=S(=O)(c1ccc(-c2ccc3nccc(N[C@@H]4CCCC[C@H]4O)c3c2)cc1)N1CCOCC1 | – | < 4.66 | – | 6.40 | – | – | – | – | 30 | > 30 | > 10000 | > 80 | – |
| – | – | – | – | CS(=O)(=O)CCNCc1ccc(-c2ccc3ncnc(Nc4ccc(OCc5cccc(F)c5)c(Cl)c4)c3c2)o1 [LAPATINIB] | – | – | – | – | < 4.82 | – | – | 5.82 | – | – | – | – | 6.28 |
